From patent US20080004253A1, “Thiazolopyrimidine modulators of TRPV1” (priority 2006, published 2008)

Assays:
rat TRPV1 = target: T1, rat TRPV1 (Rattus norvegicus, UniProt O35433); assay: Functional assay: block of capsaicin-induced Ca2+ influx, rat assay (rTRPV1/HEK293, FLIPR); format: cell-based; conditions: rTRPV1/HEK293 cells, capsaicin challenge, Fluo-3 fluorescence; mean; > value = solubility limit in assay medium
T1 construct: expressed in transfected cells; host or cells: HEK293 (rTRPV1/HEK293), geneticin selection
Description: (§1) Functional assay: block of capsaicin-induced Ca^2+ influx
(§2) HEK293 cells were transfected with human TRPV1 cloned in pcDNA3.1zeo(+) using the Effectene non-liposomal lipid based transfection kit (Qiagen) (hTRPV1/HEK293). hTRPV1/HEK293 cells were routinely grown as monolayers under selection in zeocin (200 μg/mL; Invitrogen) in Dulbecco's Modified Eagle Medium (DMEM, Gibco BRL) supplemented with 10% fetal bovine serum, and penicillin/streptomycin (50 units/mL) in 5% CO2 at 37° C. Cells were passaged frequently, every 3-5 days, to avoid overgrowth, depletion of essential medium components, or acidic medium exposure. Cells were passaged using a brief wash in 0.05% trypsin with 1 mM EDTA, followed by dissociation in divalent-free phosphate-buffered saline (Hyclone #SH30028.02). […] The assay buffer was composed of 130 mM NaCl, 2 mM KCl, 2 mM MgCl2, 10 mM HEPES, 5 mM glucose, and either 2 mM or 20 μM CaCl2. On the day of the experiment, the culture medium was replaced with 2 mM calcium assay buffer using an automated plate washer (ELx405; Biotek, VT). […] After loading the cells, the dye solution was replaced with 50 μL/well of 20 μM calcium assay buffer using the ELx405 plate washer. Test compounds (50 μL/well) were added to the plate and incubated for 30 min. […] The IC50 values were determined. […] The contents of the wells were mixed 3 times (40 μL mix volume) immediately after the additions were made. Concentration-dependence of block was determined by exposing each well of cells in duplicate rows of a 96-well plate to a serial dilution of test compound. The concentration series usually started at 10 μM with a three-fold serial decrement in concentration. The magnitude of the capsaicin response was determined by measuring the change in fluo3 fluorescence before and 100 seconds after the addition of the agonist. Data were analyzed using a non-linear regression program (Origin; OriginLab, MA).
This assay was performed similarly to the human assay described above, but using HEK293 cells transfected with rat TRPV1 (rTRPV1/HEK293).
(§3) IC50 values shown are the average (mean) of the results obtained. […] Compounds were tested in either the free base or trifluoroacetic acid salt form.

human TRPV1 = target: T2, human TRPV1 (Homo sapiens, UniProt Q8NER1); assay: Functional assay: block of capsaicin-induced Ca2+ influx, human assay (hTRPV1/HEK293, FLIPR); format: cell-based; conditions: hTRPV1/HEK293 cells, 150 nM capsaicin challenge, Fluo-3 fluorescence; mean; > value = solubility limit in assay medium
T2 construct: expressed in transfected cells; host or cells: HEK293 (hTRPV1/HEK293), zeocin selection
Description: as §1, §2, §3

T2 sequence (Q8NER1 whole entry): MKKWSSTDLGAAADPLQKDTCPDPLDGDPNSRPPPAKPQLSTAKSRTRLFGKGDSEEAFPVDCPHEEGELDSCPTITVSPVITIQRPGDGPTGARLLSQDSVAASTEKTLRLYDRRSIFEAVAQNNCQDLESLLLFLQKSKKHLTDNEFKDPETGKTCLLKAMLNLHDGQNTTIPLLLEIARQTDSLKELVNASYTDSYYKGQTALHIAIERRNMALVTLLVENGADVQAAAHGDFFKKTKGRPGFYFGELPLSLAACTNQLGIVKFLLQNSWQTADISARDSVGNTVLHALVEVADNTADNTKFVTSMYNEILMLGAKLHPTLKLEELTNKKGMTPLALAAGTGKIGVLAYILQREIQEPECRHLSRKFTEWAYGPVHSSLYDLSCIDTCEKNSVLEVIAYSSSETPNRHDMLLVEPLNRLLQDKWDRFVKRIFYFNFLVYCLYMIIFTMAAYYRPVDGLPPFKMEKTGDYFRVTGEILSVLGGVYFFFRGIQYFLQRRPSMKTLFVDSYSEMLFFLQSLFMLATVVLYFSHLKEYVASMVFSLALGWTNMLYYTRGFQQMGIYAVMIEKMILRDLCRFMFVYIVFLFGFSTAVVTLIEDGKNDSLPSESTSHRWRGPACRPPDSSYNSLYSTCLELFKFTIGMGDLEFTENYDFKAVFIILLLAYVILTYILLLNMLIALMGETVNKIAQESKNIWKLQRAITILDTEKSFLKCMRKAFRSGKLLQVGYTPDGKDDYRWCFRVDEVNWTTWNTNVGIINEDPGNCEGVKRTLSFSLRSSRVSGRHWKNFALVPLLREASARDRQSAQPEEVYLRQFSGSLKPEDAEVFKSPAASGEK
T1 sequence (O35433 whole entry): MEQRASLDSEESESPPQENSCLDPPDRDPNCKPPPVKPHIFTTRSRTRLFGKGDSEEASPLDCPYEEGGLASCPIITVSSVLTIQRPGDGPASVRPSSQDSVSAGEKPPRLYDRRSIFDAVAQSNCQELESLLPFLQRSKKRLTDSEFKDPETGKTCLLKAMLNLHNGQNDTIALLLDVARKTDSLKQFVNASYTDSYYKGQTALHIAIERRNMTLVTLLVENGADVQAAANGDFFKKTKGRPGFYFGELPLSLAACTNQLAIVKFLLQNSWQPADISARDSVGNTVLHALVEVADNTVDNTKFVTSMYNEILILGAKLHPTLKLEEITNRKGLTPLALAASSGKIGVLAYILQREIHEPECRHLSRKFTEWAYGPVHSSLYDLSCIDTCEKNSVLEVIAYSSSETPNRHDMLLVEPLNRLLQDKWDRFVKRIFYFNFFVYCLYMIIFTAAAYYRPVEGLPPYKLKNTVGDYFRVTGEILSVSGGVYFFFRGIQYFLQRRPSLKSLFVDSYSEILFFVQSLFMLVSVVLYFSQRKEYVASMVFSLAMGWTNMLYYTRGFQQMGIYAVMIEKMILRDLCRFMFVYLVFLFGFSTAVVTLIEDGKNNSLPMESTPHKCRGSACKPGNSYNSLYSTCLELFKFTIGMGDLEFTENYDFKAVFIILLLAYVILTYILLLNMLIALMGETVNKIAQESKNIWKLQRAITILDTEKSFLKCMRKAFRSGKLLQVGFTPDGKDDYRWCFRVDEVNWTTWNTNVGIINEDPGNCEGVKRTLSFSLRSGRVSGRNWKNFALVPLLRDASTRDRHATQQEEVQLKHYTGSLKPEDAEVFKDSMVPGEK

IC50 (rat TRPV1)	IC50 (human TRPV1)	SMILES
> 20000 nM	> 20000 nM	Cc1cccc(C)c1Nc1nc2c(Nc3ccc(C(F)(F)F)cn3)ncnc2s1 [Example 176, N^2-(2,6-Dimethyl-phenyl)-N^7-(5-trifluoromethyl-pyridin-2-yl)-thiazolo[5,4-d]pyrimidine-2,7-diamine]
349 nM	1220 nM	Cc1cccc(C)c1Nc1nc2c(Nc3ccc(S(=O)(=O)N4CCNCC4)cc3)ncnc2s1 [Example 151, N^2-(2,6-Dimethyl-phenyl)-N^7-[4-(Piperazine-1-sulfonyl)-phenyl]-thiazolo[5,4-d]pyrimidine-2,7-diamine]
1320 nM	809 nM	CN1CCN(c2nc(Nc3ccc(C(F)(F)F)cc3)c3nc(Nc4c(Cl)cccc4Cl)sc3n2)CC1 [Example 187, N^2-(2,6-Dichloro-phenyl)-5-(4-methyl-piperazin-1-yl)-N^7-(4-trifluoromethyl-phenyl)-thiazolo[5,4-d]pyrimidine-2,7-diamine]
5320 nM	> 20000 nM	Cc1nc(Nc2cccnc2)c2nc(Nc3c(C)cccc3C)sc2n1 [Example 171, N^2-(2,6-Dimethyl-phenyl)-5-methyl-N^7-pyridin-3-yl-thiazolo[5,4-d]pyrimidine-2,7-diamine]
279 nM	423 nM	Cc1nc(Nc2ccc([S+](C)[O-])cc2)c2nc(Nc3c(C)cccc3C)sc2n1 (racemic) [Example 143, (racemic)-N^2-(2,6-Dimethyl-phenyl)-N^7-(4-methanesulfinyl-phenyl)-5-methyl-thiazolo[5,4-d]pyrimidine-2,7-diamine]
1580 nM	5530 nM	Cc1noc(C)c1Nc1nc2c(Nc3ccc(S(C)(=O)=O)cc3)ncnc2s1 [Example 224, N^2-(3,5-Dimethylisoxazol-4-yl)-N^7-[4-(methylsulfonyl)phenyl][1,3]thiazolo[5,4-d]pyrimidine-2,7-diamine]
> 6670 nM	> 6670 nM	Cc1cccc(C)c1Nc1nc2c(Nc3ccc(Cl)c(Cl)c3)ncnc2s1 [Example 34, N^7-(3,4-Dichloro-phenyl)-N^2-(2,6-dimethyl-phenyl)-thiazolo[5,4-d]pyrimidine-2,7-diamine]
354 nM	723 nM	Cc1cccc(C)c1Nc1nc2c(Nc3ccccc3)ncnc2s1 [Example 147, N^2-(2,6-Dimethyl-phenyl)-N^7-phenyl-thiazolo[5,4-d]pyrimidine-2,7-diamine]
20 nM	26 nM	Cc1cccc(C)c1Nc1nc2c(Nc3ccc(S(=O)(=O)N4CCN(C)CC4)cc3)ncnc2s1 [Example 110, N^2-(2,6-Dimethyl-phenyl)-N^7-[4-(4-methyl-piperazine-1-sulfonyl)-phenyl]-thiazolo[5,4-d]pyrimidine-2,7-diamine]
71 nM	139 nM	COC(=O)C(C)(C)c1ccc(Nc2ncnc3sc(Nc4c(Cl)cccc4Cl)nc23)cc1 [Example 229, Methyl 2-[4-({2-[(2,6-dichlorophenyl)amino][1,3]thiazolo[5,4-d]pyrimidin-7-yl}amino)phenyl]-2-methylpropanoate]
> 6670 nM	> 6670 nM	Cc1cccc(C)c1Nc1nc2c(NCc3ccc(Cl)c(Cl)c3)ncnc2s1 [Example 39, N^7-(3,4-Dichloro-benzyl)-N^2-(2,6-dimethyl-phenyl)-thiazolo[5,4-d]pyrimidine-2,7-diamine]
1 nM	1 nM	OCc1cc(Cl)c(Nc2nc3c(Nc4ccc(C(F)(F)F)cc4)ncnc3s2)c(Cl)c1 [Example 242, {3,5-Dichloro-4-[7-(4-trifluoromethyl-phenylamino)-thiazolo[5,4-d]pyrimidin-2-ylamino]-phenyl}-methanol]
> 6670 nM	> 6670 nM	Cc1ccc(CNc2ncnc3sc(Nc4c(C)cccc4C)nc23)o1 [Example 47, N^2-(2,6-Dimethyl-phenyl)-N^7-(5-methyl-furan-2-ylmethyl)-thiazolo[5,4-d]pyrimidine-2,7-diamine]
> 20000 nM	13600 nM	CN[C@@H]1CCN(c2nc(Nc3ccc(C(F)(F)F)cc3)c3nc(Nc4c(Cl)cccc4Cl)sc3n2)C1 [Example 183, (3R)-N^2-(2,6-Dichloro-phenyl)-5-(3-methylamino-pyrrolidin-1-yl)-N^7-(4-trifluoromethyl-phenyl)-thiazolo[5,4-d]pyrimidine-2,7-diamine]
121 nM	138 nM	CC(=O)c1ccc(Nc2ncnc3sc(Nc4c(C)cccc4C)nc23)cc1 [Example 128, 1-{4-[2-(2,6-Dimethyl-phenylamino)-thiazolo[5,4-d]pyrimidin-7-ylamino]-phenyl}-ethanone]
32 nM	91 nM	FC(F)(F)c1ccc(Nc2ncnc3sc(Nc4ccccc4C(F)(F)F)nc23)cc1 [Example 225, N^2-[2-(Trifluoromethyl)phenyl]-N^7-[4-(trifluoromethyl)phenyl][1,3]thiazolo[5,4-d]pyrimidine-2,7-diamine]
202 nM	207 nM	COC(=O)c1scc(C)c1Nc1nc2c(Nc3ccc(C(F)(F)F)cc3)ncnc2s1 [Example 48, 4-Methyl-3-[7-(4-trifluoromethyl-phenylamino)-thiazolo[5,4-d]pyrimidin-2-ylamino]-thiophene-2-carboxylic acid methyl ester]
4 nM	14 nM	FC(F)(F)c1ccc(Nc2ncnc3sc(Nc4c(Cl)cccc4Cl)nc23)cn1 [Example 2, N^2-(2,6-Dichloro-phenyl)-N^7-(6-trifluoromethyl-pyridin-3-yl)-thiazolo[5,4-d]pyrimidine-2,7-diamine]
1710 nM	2470 nM	Cc1nc(Nc2ccc(C(F)(F)F)cc2)c2nc(Nc3ccccc3[N+](=O)[O-])sc2n1 [Example 206, 5-Methyl-N^2-(2-nitro-phenyl)-N^7-(4-trifluoromethyl-phenyl)-thiazolo[5,4-d]pyrimidine-2,7-diamine]
140 nM	171 nM	Cc1nc(Nc2ccc(SC(F)(F)F)c(Cl)c2)c2nc(Nc3c(C)cccc3C)sc2n1 [Example 131, N^7-(3-Chloro-4-trifluoromethylsulfanyl-phenyl)-N^2-(2,6-dimethyl-phenyl)-5-methyl-thiazolo[5,4-d]pyrimidine-2,7-diamine]
19 nM	70 nM	Cc1ccccc1Nc1nc2c(Nc3ccc(C(F)(F)F)cc3)ncnc2s1 [Example 17, N^2-o-Tolyl-N^7-(4-trifluoromethyl-phenyl)-thiazolo[5,4-d]pyrimidine-2,7-diamine]
442 nM	452 nM	Cc1cccc(C)c1Nc1nc2c(Nc3ccc(C(=O)N(C)C)cc3)ncnc2s1 [Example 145, 4-[2-(2,6-Dimethyl-phenylamino)-thiazolo[5,4-d]pyrimidin-7-ylamino]-N,N-dimethyl-benzamide]
2 nM	3 nM	Cc1ccccc1Nc1nc2c(Nc3ccc(S(=O)(=O)N4CCCC4)cc3)ncnc2s1 [Example 83, N^7-[4-(Pyrrolidine-1-sulfonyl)-phenyl]-N^2-o-tolyl-thiazolo[5,4-d]pyrimidine-2,7-diamine]
31 nM	74 nM	FC(F)(F)c1ccc(Nc2ncnc3sc(Nc4c(Cl)cccc4C(F)(F)F)nc23)cn1 [Example 19, N^2-(2-Chloro-6-trifluoromethyl-phenyl)-N^7-(6-trifluoromethyl-pyridin-3-yl)-thiazolo[5,4-d]pyrimidine-2,7-diamine]
2 nM	7 nM	CC(C)C1CCCN1c1nc(Nc2ccc(C(F)(F)F)cc2)c2nc(Nc3c(Cl)cccc3Cl)sc2n1 (racemic) [Example 89, (racemic)-N^2-(2,6-Dichloro-phenyl)-5-(2-isopropyl-pyrrolidin-1-yl)-N^7-(4-trifluoromethyl-phenyl)-thiazolo[5,4-d]pyrimidine-2,7-diamine]
> 20000 nM	> 20000 nM	Cc1nc(N(C)c2ccc(C(F)(F)F)cc2)c2nc(Nc3c(Cl)cccc3Cl)sc2n1 [Example 9, N^2-(2,6-Dichloro-phenyl)-5,N^7-dimethyl-N^7-(4-trifluoromethyl-phenyl)-thiazolo[5,4-d]pyrimidine-2,7-diamine]
10 nM	8 nM	Cc1nc(Nc2ccc(S(=O)(=O)C(C)C)cc2)c2nc(Nc3c(Cl)cccc3Cl)sc2n1 [Example 93, N^2-(2,6-Dichloro-phenyl)-5-methyl-N^7-[4-(propane-2-sulfonyl)-phenyl]-thiazolo[5,4-d]pyrimidine-2,7-diamine]
